Data set [1] can be described thus: Inhibition of N-terminal GST-tagged wildtype human P38alpha (4 to 152 residues) extracted from Escherichia coli/GST-tagged MK2 (unknown origin) assessed as reduction in HSP27 phosphorylation incubated for 2 hrs in presence of ATP and HSP27-FITC peptide by fluorescence polarization based IMAP assay. (In general: Fluorescence polarisation rises when a labelled molecule tumbles more slowly, as on binding a larger partner.)

Data set [2] can be described thus: Inhibition of N-terminal GST-tagged wildtype human P38alpha (4 to 152 residues) extracted from Escherichia coli/GST-tagged PRAK (unknown origin) assessed as reduction in HSP27 phosphorylation incubated for 2 hrs in presence of ATP and HSP27-FITC peptide by fluorescence polarization based IMAP assay.
Data set [3] in a line: Selectivity ratio of IC50 for inhibition of N-terminal GST-tagged wildtype human P38alpha (4 to 152 residues) extracted from Escherichia coli/GST-tagged PRAK (unknown origin) to IC50 for inhibition of N-terminal GST-tagged wildtype human P38alpha (4 to 152 residues) extracted from Escherichia coli/GST-tagged MK2 (unknown origin).
A short description of data set [4]: AUClast in male Sprague-Dawley rat at 1 mg/kg, iv measured after 24 hrs by LC-MS/MS analysis. It is filed as ADME, organism-based. As to conditions: in vivo.
Data set [5] in a line: Clearance in male Sprague-Dawley rat at 1 mg/kg, iv measured after 24 hrs by LC-MS/MS analysis. It is filed as ADME, organism-based. As to conditions: in vivo.
Data set [6] in a line: Volume of distribution at steady state in male Sprague-Dawley rat at 1 mg/kg, iv measured after 24 hrs by LC-MS/MS analysis. It is filed as ADME, organism-based. To be noted: in vivo, read-out: Vdss.
Data set [7] is described as follows: Half-life in male Sprague-Dawley rat at 1 mg/kg, iv measured after 24 hrs by LC-MS/MS analysis. Type of data set: ADME, organism-based. As to conditions: in vivo.
Data set [8] can be described thus: MRT in male Sprague-Dawley rat at 1 mg/kg, iv measured after 24 hrs by LC-MS/MS analysis. It is filed as ADME, organism-based. As to conditions: in vivo.
The nature of data set [9]: Cmax in male Sprague-Dawley rat at 2 mg/kg, po measured after 24 hrs by LC-MS/MS analysis. It is filed as ADME, organism-based. As to conditions: in vivo.
Data set [10] in a line: AUClast in male Sprague-Dawley rat at 2 mg/kg, po measured after 24 hrs by LC-MS/MS analysis. It is filed as ADME, organism-based. To be noted: in vivo.
The nature of data set [11]: Oral bioavailability in male Sprague-Dawley rat at 2 mg/kg measured after 24 hrs by LC-MS/MS analysis. Type of data set: ADME, organism-based. To be noted: in vivo.
A short description of data set [12]: AUClast in male Beagle dog at 1 mg/kg, iv measured after 24 hrs by LC-MS/MS analysis. It is filed as ADME, organism-based, Canis lupus familiaris. To be noted: in vivo.
The nature of data set [13]: Clearance in male Beagle dog at 1 mg/kg, iv measured after 24 hrs by LC-MS/MS analysis. As to conditions: in vivo. It is filed as ADME, organism-based, Canis lupus familiaris.
A short description of data set [14]: Volume of distribution at steady state in male Beagle dog at 1 mg/kg, iv measured after 24 hrs by LC-MS/MS analysis. It is filed as ADME, organism-based, Canis lupus familiaris. As to conditions: in vivo, read-out: Vdss.
Data set [15] can be described thus: Half-life in male Beagle dog at 1 mg/kg, iv measured after 24 hrs by LC-MS/MS analysis. It is filed as ADME, organism-based, Canis lupus familiaris. To be noted: in vivo.
A short description of data set [16]: MRT in male Beagle dog at 1 mg/kg, iv measured after 24 hrs by LC-MS/MS analysis. It is filed as ADME, organism-based, Canis lupus familiaris. To be noted: in vivo.
Data set [17] is described as follows: Cmax in male Beagle dog at 2 mg/kg, po measured after 24 hrs by LC-MS/MS analysis. As to conditions: in vivo. Type of data set: ADME, organism-based, Canis lupus familiaris.
A short description of data set [18]: AUClast in male Beagle dog at 2 mg/kg, po measured after 24 hrs by LC-MS/MS analysis. Type of data set: ADME, organism-based, Canis lupus familiaris. As to conditions: in vivo.
A short description of data set [19]: Oral bioavailability in male Beagle dog at 2 mg/kg measured after 24 hrs by LC-MS/MS analysis. It is filed as ADME, organism-based, Canis lupus familiaris. As to conditions: in vivo.
For data set [20], the system named is PBMC. The data set can be described thus: Inhibition of LPS-induced TNF-alpha production in human PBMC cells at 0.01 to 10000 nM preincubated with compound for 1 hrs followed by LPS addition and measured after 4 hrs. To be noted: dose 0.01-10000 nM, time 5.0 hrs. Type of data set: functional, cell-based.
Data set [21] concerns PBMC. The data set can be described thus: Inhibition of LPS-induced IL-6 production in human PBMC cells at 0.01 to 10000 nM preincubated with compound for 1 hrs followed by LPS addition and measured after 4 hrs. Type of data set: functional, cell-based. To be noted: dose 0.01-10000 nM, time 5.0 hrs.
In data set [22] the test system is PBMC. Nature of the data set: Inhibition of LPS-induced IL-8 production in human PBMC cells at 0.01 to 10000 nM preincubated with compound for 1 hrs followed by LPS addition and measured after 4 hrs. It is filed as functional, cell-based. As to conditions: dose 0.01-10000 nM, time 5.0 hrs.
Data set [23] can be described thus: Solubility of compound in PBS at pH 7.4 measured after 4 to 24 hrs by LC-MS analysis. It is filed as physicochemical. To be noted: time 4-24 hrs.
Data set [24] in a line: Half-life in female Lewis rat at 1 mg/kg, po measured after 24 hrs by LC-MS/MS analysis. It is filed as ADME, organism-based. To be noted: in vivo.
Data set [25] can be described thus: Cmax in female Lewis rat at 1 mg/kg, po measured after 24 hrs by LC-MS/MS analysis. Type of data set: ADME, organism-based. To be noted: in vivo.
The nature of data set [26]: AUC (0 to 24 hrs) in female Lewis rat at 1 mg/kg, po measured after 24 hrs by LC-MS/MS analysis. To be noted: in vivo. Type of data set: ADME, organism-based.
The nature of data set [27]: Half-life in female Lewis rat at 3 mg/kg, po measured after 24 hrs by LC-MS/MS analysis. Type of data set: ADME, organism-based. To be noted: in vivo.
Data set [28] can be described thus: Cmax in female Lewis rat at 3 mg/kg, po measured after 24 hrs by LC-MS/MS analysis. Type of data set: ADME, organism-based. As to conditions: in vivo.
Data set [29] can be described thus: AUC (0 to 24 hrs) in female Lewis rat at 3 mg/kg, po measured after 24 hrs by LC-MS/MS analysis. To be noted: in vivo. It is filed as ADME, organism-based.
In data set [30] the test system is Rattus norvegicus. The data set can be described thus: Antiarthritic activity in Mycobacterium tuberculosis H37R-induced female Lewis rat model of arthritis assessed as reduction in paw inflammation at 3 mg/kg, po administered twice daily for 15 days starting from day 13 after adjuvant administration by micro-CT analysis. To be noted: time 15.0 day. It is filed as functional, organism-based.

A short description of data set [31]: Inhibition of LPS-induced TNF-alpha production in human PBMC cells preincubated with compound for 1 hrs followed by LPS addition and measured after 4 hrs. It is filed as functional, cell-based.
A short description of data set [32]: Inhibition of LPS-induced IL-1beta production in human PBMC cells preincubated with compound for 1 hrs followed by LPS addition and measured after 4 hrs. It is filed as functional, cell-based.

Broadly, the IC50 is the concentration that gives 50% inhibition. For orientation: AUC(0-t) means the area under the concentration-time curve up to a stated or last time point. High values mean more exposure, low ones less exposure. As usually defined, the clearance is a measure of how efficiently the substance is removed, as volume per time. Higher therefore signals a high capacity for elimination. As usually defined, the half-life is the time in which the quantity being followed falls by half. A higher half-life goes with slow loss. By MRT is commonly meant the average time that molecules of a dose stay in the body. The Cmax is the maximum level reached in the sampled fluid or tissue. What is called solubility is the concentration that dissolves in the medium under given conditions. A higher solubility goes with much dissolved substance.

≈ marks a conversion by molar mass, not a printed value. Calls of active or inactive are those of the source. The calls are words filed in the database; no cut-off is given here. A value given as a limit tells only on which side of the number the result lay.

Turning to `Cc1cnc(-c2ccnc(C(C)(C)O)n2)cc1-n1c(C)cc(OCc2ncc(F)cc2F)c(Cl)c1=O` [ZUNSEMETINIB], the figures for the half-maximal inhibitory concentration (IC50) in data set [1] and in data set [2] were 6.6 nM and 6.41 µM, respectively. For the same molecule, the Ratio IC50 in data set [3] came to 971. For the same molecule, the area under the curve AUC(0-t) at 24 h in [4] came out at 1280 ng·h/mL; in data set [10], 1830 ng·h/mL; in data set [12], 2230 ng·h/mL; in data set [18] it was 3230 ng·h/mL; in data set [26], 682 ng·h/mL; in data set [29] it was 2520 ng·h/mL. Also, the clearance turned out to be 13.1 mL/min/kg in data set [5] and 7.5 mL/min/kg in data set [13]. Also, the Vd in [6] was 0.8 L/kg; in data set [14], 1.5 L/kg. The half-life in [7] was 66 min; in data set [15] it was 204 min; in [24], 114 min; in [27] it was 96 min. The mean residence time (MRT) in data set [8] came to 1.1 h; in data set [16] it was 3.4 h. Further, the maximum concentration (Cmax) worked out at 415 ng/mL in data set [9], 587 ng/mL in [17], 217 ng/mL in data set [25] and 781 ng/mL in data set [28]. Moreover, the bioavailability in data set [11] is 71%; in data set [19], 73%. The inhibition entry in data set [20], in data set [21] and in data set [22] was “Active” throughout. In addition, the solubility in data set [23] was 5.6 µg/mL (≈ 10.9 µM). Besides, the outcome in data set [30] was inactive.

For the molecule `Cc1cnc(-c2cccc(C(C)(C)O)c2F)c(F)c1-n1c(C)cc(OCc2ncc(F)cc2F)c(Cl)c1=O`, the values for the half-maximal inhibitory concentration (IC50) in [2], in [31] and in data set [32] were 0.001 µM, less than 0.1 nM and 0.02 nM, respectively. The Ratio IC50 in data set [3] was 125. For the same molecule, the AUC(0-t) at 24 h in [4] amounted to 1080 ng·h/mL; in [10] it was 861 ng·h/mL. Moreover, the clearance in [5] was 16.3 mL/min/kg. The Vd in data set [6] was determined as 1.1 L/kg. Also, the half-life in data set [7] was 54 min. Moreover, in data set [8], the MRT came to 1.2 h. The Cmax in [9] was found to be 283 ng/mL. Also, the bioavailability in [11] stood at 40%.

Turning to `Cc1cnc(-c2cccc(C(C)(C)O)c2)c(F)c1-n1c(C)cc(O[C@@H](C)c2ncc(F)cc2F)c(Cl)c1=O`, the 50% inhibitory concentration (IC50) was found to be 1.9 nM in data set [1] and 3.77 µM in data set [2]. The Ratio IC50 in data set [3] stood at 1990. Further, the figures for the exposure AUC(0-t) at 24 h in data set [4] and in data set [10] were 3230 ng·h/mL and 8050 ng·h/mL, respectively. The molecule also returned a clearance in data set [5] of 5 mL/min/kg. For the same molecule, in [6], the Vd came out at 0.9 L/kg. This molecule showed a half-life in data set [7] of 132 min. The molecule also returned a mean residence time (MRT) in data set [8] of 3 h. Moreover, in [9], the peak concentration (Cmax) came to 1030 ng/mL. Besides, in data set [11], the bioavailability was 125%.

(Values after ChEMBL document CHEMBL6096702, “Discovery of a Novel p38α-MK2 Complex Inhibitor as a Potential Choice for Autoimmune Diseases” (J Med Chem, 2025).)
